Source: the supplement of paper PMC11451515

Tested on: P12-Ichikawa
Assay: cell viability relative to DMSO control; higher = less cytotoxic
Details: 48 h
How it was run: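 Library compounds in DMSO were pin-dosed into 1536-well plates (5 μl) holding NOMO1 or SEM (500 cells/well) or P12-Ichikawa (1000 cells/well) leukemia cells, across an 11-point threefold series of 47 μM to 0.79 nM. Each cell line had been adapted for at least four passages in each medium. CellTiter-Glo One luminescence was read after 48 h at 37°C. Viability is the per-plate percentage relative to DMSO wells, with cell-free wells as background.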

[1] = HPLM + 10% dialyzed FBS, 0.000781 µM
[2] = HPLM + 10% dialyzed FBS, 0.00234 µM
[3] = HPLM + 10% dialyzed FBS, 0.00702 µM
[4] = HPLM + 10% dialyzed FBS, 0.0211 µM
[5] = HPLM + 10% dialyzed FBS, 0.0632 µM
[6] = HPLM + 10% dialyzed FBS, 0.19 µM
[7] = HPLM + 10% dialyzed FBS, 0.569 µM
[8] = HPLM + 10% dialyzed FBS, 1.71 µM
[9] = HPLM + 10% dialyzed FBS, 5.12 µM
[10] = HPLM + 10% dialyzed FBS, 15.4 µM
[11] = HPLM + 10% dialyzed FBS, 46.1 µM
[12] = RPMI 5 mM glucose + 10% dialyzed FBS, 0.000781 µM
[13] = RPMI 5 mM glucose + 10% dialyzed FBS, 0.00234 µM
[14] = RPMI 5 mM glucose + 10% dialyzed FBS, 0.00702 µM
[15] = RPMI 5 mM glucose + 10% dialyzed FBS, 0.0211 µM
[16] = RPMI 5 mM glucose + 10% dialyzed FBS, 0.0632 µM
[17] = RPMI 5 mM glucose + 10% dialyzed FBS, 0.19 µM
[18] = RPMI 5 mM glucose + 10% dialyzed FBS, 0.569 µM
[19] = RPMI 5 mM glucose + 10% dialyzed FBS, 1.71 µM
[20] = RPMI 5 mM glucose + 10% dialyzed FBS, 5.12 µM
[21] = RPMI 5 mM glucose + 10% dialyzed FBS, 15.4 µM
[22] = RPMI 5 mM glucose + 10% dialyzed FBS, 46.1 µM
[23] = RPMI 5 mM glucose + 10% FBS, 0.000781 µM
[24] = RPMI 5 mM glucose + 10% FBS, 0.00234 µM
[25] = RPMI 5 mM glucose + 10% FBS, 0.00702 µM
[26] = RPMI 5 mM glucose + 10% FBS, 0.0211 µM
[27] = RPMI 5 mM glucose + 10% FBS, 0.0632 µM
[28] = RPMI 5 mM glucose + 10% FBS, 0.19 µM
[29] = RPMI 5 mM glucose + 10% FBS, 0.569 µM
[30] = RPMI 5 mM glucose + 10% FBS, 1.71 µM
[31] = RPMI 5 mM glucose + 10% FBS, 5.12 µM
[32] = RPMI 5 mM glucose + 10% FBS, 15.4 µM
[33] = RPMI 5 mM glucose + 10% FBS, 46.1 µM

| SMILES | cell viability [1] | cell viability [2] | cell viability [3] | cell viability [4] | cell viability [5] | cell viability [6] | cell viability [7] | cell viability [8] | cell viability [9] | cell viability [10] | cell viability [11] | cell viability [12] | cell viability [13] | cell viability [14] | cell viability [15] | cell viability [16] | cell viability [17] | cell viability [18] | cell viability [19] | cell viability [20] | cell viability [21] | cell viability [22] | cell viability [23] | cell viability [24] | cell viability [25] | cell viability [26] | cell viability [27] | cell viability [28] | cell viability [29] | cell viability [30] | cell viability [31] | cell viability [32] | cell viability [33] |
| --- | --- | --- | --- | --- | --- | --- | --- | --- | --- | --- | --- | --- | --- | --- | --- | --- | --- | --- | --- | --- | --- | --- | --- | --- | --- | --- | --- | --- | --- | --- | --- | --- | --- |
| Cc1ccc(-c2cc(C(F)(F)F)nn2-c2ccc([S+](N)(=O)[O-])cc2)cc1 | 86.8% | 125% | 118% | 118% | 120% | 110% | 128% | 117% | 115% | 112% | 105% | 111% | 119% | 122% | 113% | 115% | 123% | 123% | 122% | 121% | 105% | 102% |  |  |  |  |  |  |  |  |  |  |  |
| CN1CCN(CCCN2c3ccccc3Sc3ccc(Cl)cc32)CC1.O=C(O)/C=C\C(=O)O.O=C(O)/C=C\C(=O)O | 108% | 108% | 105% | 105% | 106% | 107% | 114% | 99% | 108% | 36.1% | 34.8% | 106% | 105% | 106% | 108% | 116% | 112% | 111% | 110% | 104% | 28.1% | 32.1% | 119% | 110% | 125% | 126% | 119% | 137% | 122% | 112% | 114% | 29.5% | 31.2% |
| CN(C)CCc1c[nH]c2ccc(C[S+](=O)([O-])N3CCCC3)cc12 | 104% | 105% | 110% | 114% | 114% | 113% | 114% | 111% | 107% | 110% | 84.4% | 97.1% | 101% | 108% | 106% | 113% | 107% | 117% | 113% | 104% | 96% | 84.2% | 106% | 110% | 110% | 116% | 109% | 115% | 118% | 111% | 111% | 99.8% | 87.5% |
| Nc1nc(N)c(N=O)c(OCC2CCCCC2)n1 | 89.4% | 90.3% | 88.9% | 90.6% | 97.6% | 92.2% | 88.3% | 81.1% | 75.6% | 60.6% | 40.1% | 84.8% | 89.2% | 85% | 86.9% | 100% | 88.5% | 91.3% | 72.3% | 59% | 48.9% | 35.9% | 86% | 87.3% | 86.9% | 93% | 98.2% | 95.3% | 84.6% | 78.7% | 53.8% | 45% | 34.7% |
| Nc1nc(NCCNc2ncc(-n3ccnc3)c(-c3ccc(Cl)cc3Cl)n2)ccc1[N+](=O)[O-] | 114% | 119% | 125% | 123% | 126% | 132% | 133% | 131% | 134% | 130% | 125% |  |  |  |  |  |  |  |  |  |  |  |  |  |  |  |  |  |  |  |  |  |  |
| CC(C)(C)C1=CC(=C(NC(=O)C/2=C/NC3=C(C=CC=C3)C2=O)C=C1O)C(C)(C)C | 123% | 113% | 124% | 120% | 121% | 124% | 120% | 118% | 118% | 114% | 112% |  |  |  |  |  |  |  |  |  |  |  | 124% | 139% | 124% | 133% | 119% | 124% | 131% | 115% | 117% | 116% | 112% |
| C=CC(=O)Nc1ccc2ncnc(Nc3ccc(OCc4cccc(F)c4)c(Cl)c3)c2c1 | 97% | 111% | 104% | 105% | 113% | 109% | 97.2% | 105% | 85.1% | 10.7% | 10.7% | 97.1% | 111% | 117% | 122% | 111% | 118% | 116% | 107% | 81% | 21.4% | 16.4% | 97.3% | 105% | 109% | 105% | 110% | 107% | 118% | 103% | 83.1% | 13.4% | 12.3% |
| CCOC(=O)[C@@H](N)CCC(=O)N[C@@H](CSCc1ccccc1)C(=O)N[C@@H](C(=O)OCC)c1ccccc1 | 109% | 124% | 128% | 126% | 131% | 131% | 129% | 132% | 139% | 140% | 123% |  |  |  |  |  |  |  |  |  |  |  |  |  |  |  |  |  |  |  |  |  |  |
| COc1ccc(C2(C#N)CCC(C(=O)O)CC2)cc1OC1CCCC1 (stereo unspecified) | 96.2% | 105% | 108% | 108% | 104% | 107% | 103% | 99.2% | 105% | 108% | 109% | 91.5% | 95.6% | 92.8% | 93.4% | 101% | 102% | 100% | 108% | 94.3% | 100% | 87.9% | 94.8% | 97.6% | 96.6% | 95.2% | 96.8% | 101% | 106% | 103% | 97.9% | 103% | 96.2% |
